Test results published in patent US9045474B2, “Compounds and compositions for mitigating tissue damage and lethality” (The Regents of the University of California, priority 2010, dated 2015).
“Also recorded” adds a separate entry of the source.

How the values were obtained:
[1] = Preliminary studies of Targeted Library analogs (DEL/Survival assay); assay type: cell-based
Source text: Analogues within at least 70% or greater similarity as defined by the Tanimoto rule of similarity are believed to have similar results as the aforementioned compounds in this application. […] Other structures within this limitation (Tanimoto rule of similarity as described and positive in DEL/Survival assay) are included. The DEL Assay, which is further described below, has established itself not only as a effective tool in carcinogenic activity detection but also as an effective methodology in establishing DNA protective properties against insults such as free radicals and ionizing radiation (see, e.g., Sobol, Z., et al., Mutation Research/Fundamental and Molecular Mechanisms of Mutagenesis, 2008. 638(1-2): p. 83-89, Hafer, K., Rivina, L., Schiestl, R H. Yeast DEL assay detects protection against radiation induced cytotoxicity and genotoxicity—adaptation of a microtiter plate version, Radiation Research, 2010, 174(6):719-26)). Thus, the DEL Assay is a reliable tool for the prediction of genotoxic and cytotoxic modulating agents. These agents also include, but are not limited to, ionizing radiation, UV radiation, environmental carcinogenesis, genetic instability, etc.
Compounds in the Targeted Library are selected as a development candidate using the Tanimoto coefficient. […]

C3H mice [2] = experiment: Mitigation of radiation-induced lethality in C3H mice (8Gy, LD100/30); conditions: 8Gy; for mice survived LD100/30 irradiation: 75 mg/kg at 1 hr and 25 hrs post exposure, past 30 days, first small study
Procedure: Radiomitigation studies were conduced by pre-treating C3H mice with the compounds of interest at as concentration of 75 mg/kg and at 24 hrs and 1 hr before an 8 Gy exposure. On a 5×24 mitigation treatment protocol mice were first lethally irradiated with 8 Gy and 24 hrs later received the first subcutaneous injection with the compound suspension with subsequent injections at 48, 72, 96, and 120 hrs. The concentration of the compound in the suspension was 75 mg/kg carrier with either 1N saline or phosphate buffer solution (PBS).
C3H mice in the mitigation experiment were irradiated with 8Gy and then injected with 75 mg/kg 1 hr post exposure and then again 25 hrs post exposure.

C3H mice [3] = experiment: Toxicity experiments in C3H mice; assay type: in vivo, mouse; conditions: 150 mg/kg, 75 mg/kg and 5 mg/kg; 120 days following the injections
Procedure: Having seen no adverse effects of the chemicals alone on mammalian cell models we performed a preliminary toxicity study on a group of C3H mice. […] In a pilot reproductive toxicity study, 12, week old female mice were paired up with 6 week old male mice and checked daily for the presence of a characteristic “plug” in the female vaginal canal as an indication of mating. As soon as the mating has occurred, males were removed and the females were treated weekly with 75 mg/kg s.c. throughout the gestation period and until the pups were weaned off (8 week treatment course). After weaning, treatment of the offspring was initiated at the same 75 mg/kg s.c. weekly dose. Controls were injected s.c. on the same schedule with the carrier (1N saline). Five treated and five control females gave birth to the same average number of pups per litter (n=6) without any detectable toxicities to the other. 3 litters of each treated and control groups survived to continue the study. No pathologies, toxicities nor adverse effects were observed. There are no developmental or teratogenic deficiencies in mice, average weights (21 g) are the same in both groups also.

DBA/2 Mice = experiment: Radiation-induced leukemia model; assay type: in vivo, mouse
Procedure: DBA/2 Mice (15/group) were irradiated with ^60Co (3.5 Gy, 0.6 Gy/min) to induce leukemia. One group received no drug, another group of mice were injected s.c. with Yel001 or Yel002 (25 mg/kg) with 5 injections for 5 days. Leukemogenesis was monitored for 90 days. Blood was drawn at days −1, 21, 42, and 63 to monitor for leukemia every 21 days to monitor for leukemia development using WBCs and differentials. This leukemia model takes advantage of non-targeted radiation effects, which are important to the carcinogenic process. This model has a shorter latency period to gamma radiation-induced leukemia (latency to 50% leukemic population: 107 days) than other murine leukemia models such as CBA mouse (399 days: 50% leukemic population). DBA/2 mice were irradiated with 3.5 Gy (^60Co 0.60 Gy/min) and then injected intravenously with (5×10^6) FDC-P1 cells. Animals were then monitored 5×/weekly for 10 weeks-post-injection and then daily after 10 weeks-post-injection until leukemia development and/or euthanasia. After the animal has been determined to be leukemic using hematological parameters, it is euthanized and a necropsy is conducted to definitively determine a conclusive diagnosis of leukemia. Control animals not developing leukemia are assessed at 270 days post experiment initiation. At that time they are euthanized and necropsied.

RS112 cells = experiment: DEL plating assay for mitigation of radiation damage (treatment after 2000Gy); assay type: cell-based, Saccharomyces cerevisiae
Procedure: The mitigation protocol is based on the same DEL assay principle of recombination of the disrupted HIS3 gene that renders the cells capable of synthesizing its own histidine following radiation exposure. To establish mitigation properties of the compounds in question, the classical DEL protocol is modified as follows: first the RS112 cells are irradiated with 2000Gy and then the treatments are administered at 0 min, 10 min, 20 min, 30 min, and 60 min, incubated for 2 hrs, and plated on +13 and −His agar plates. The efficacy of the compounds is scored the same way as in the classical DEL protocol. Yel1 and Yel2 analogues that are efficacious in the HTS and classical DEL assay are analyzed for mitigation activity using this modified DEL protocol.
Six confirmed hits were also tested for radioprotection with the compounds being presented to irradiated cells at different time points following irradiation exposure. The DEL Plating Assay was used with a radiation sensitive Saccharomyces cerevisiae RS112 strain.
The general DEL Assay is described above. In this example, DEL assay is a genetic construct in the Saccharomyces cerevisiae RS112 strain where a plasmid with an internal fragment of the HIS3 gene has been integrated at the HIS3 locus, yielding an integrative disruption of the HIS3 gene. […] The construct reverts to HIS3+ by recombination between the two his3 deletion alleles which is, in 99% of the cases, associated with the deletion of the entire 6 kilobasepairs of DNA comprising the integrated plasmid. DEL events are inducible with a variety of DNA-assaulting agents: radiation, smoking, UV exposure, 92% of the known carcinogens, etc.
RS112 cells irradiated with 2000Gy show an induction of the deletion frequencies (DEL events) and roughly a 90% killing.

DEL RS112 tester strain = experiment: DEL assay, damage by chemical carcinogen MMS; assay type: cell-based, Saccharomyces cerevisiae; conditions: 15 uM, 1 hrs after exposure to MMS
Source text: A DEL assay, described above, is used for assessing mitigation of damage induced by chemical carcinogens by compounds of invention.
Tests in this example show administration of Yel001 and Yel002 confers reduction against chemical carcinogen Methyl methanesulfonate (MMS) in vitro.
Reduction of cytotoxicity and genotoxicity with Yel002 is p<0.007 and p<0.04 restively; p-values for Yel001 are 0.0007 (genotoxicity) and 0.1 for cytotoxicity.

[4] = test system: yeast DEL tester strain RS112; experiment: DEL assay, UV radiation-induced damage; assay type: cell-based, Saccharomyces cerevisiae
Procedure: DEL tester strain was irradiated with 4000 J/m^2 in the ultraviolet range and treated with Yel001 or Yel002 at 60 minutes at the concentration of 15 uM.

mammalian cell lines = experiment: Therapy Bioluminescence Assay (survival following irradiation); assay type: cell-based; conditions: data not shown
[5] = test system: RS112 strain of S. cerevisiae; experiment: Classical DEL plating assay, radioprotection at 2000Gy irradiation; assay type: cell-based, Saccharomyces cerevisiae
Procedure: All DEL assays utilize the established methodology of “recombination” (deletion of the interruption segment and consequent end joining of the adjacent sequences) of a disrupted histidine gene that renders yeast cells exposed to radiation capable of growing on media lacking this amino acid. In the classical DEL assay radiation sensitive RS112 strain of S. cerevisiae is added to the compounds of interest suspended in complete media, incubated for 2 hrs, and irradiated at 2000Gy. The cells are then plated onto full (+13) and lacking histidine (−His) agar plates. After incubation the colonies are scored and recombination events are calculated. The efficacy of the compound is evaluated as a reduced fraction of DEL recombinations in comparison to that of irradiated controls without treatment. Radioprotectors decrease the frequency of such recombination frequencies after radiation exposure.
A plasmid with an internal fragment of the HIS3 gene, which is responsible for histidine synthesis in yeast, without which cells cannot survive in media lacking histidine, has been integrated at the HIS3 locus, yielding an integrative disruption of the HIS3 gene (Schiestl, R. H., et al., Genetics, 1988. 119(2): p. 237-47). […]

Yeast cells = experiment: DEL assay, antioxidant radioprotection by yeast growth phase; assay type: cell-based, Saccharomyces cerevisiae
Source text: In this study we used the DEL assay to measure gamma-ray induced DNA deletions throughout different phases of yeast culture growth. While yeast survival only differed by as much as two fold throughout the yeast growth phase, proliferating cells in lag and early exponential growth phases were ten-fold more sensitive to ionizing radiation-induced DNA deletions than cells in stationary growth. […] The ability of antioxidants L-ascorbic acid and DMSO to protect against radiation-induced DNA deletions was also measured within the different phases of yeast culture growth. […] This knowledge was used for the screening of radioprotectors.

mouse peripheral blood = test system: mouse peripheral blood
Procedure: In this study, we examined the role of N-acetyl-L-cysteine (NAC), a clinically proven safe agent, for it's ability to protect against γ-ray-induced DNA strand breaks and/or DNA deletions in yeast and mammals. In the yeast S. cerevisiae, DNA deletions were scored by reversion to histidine prototrophy. Human lymphoblastoid cells were examined for the frequency of γ-H2AX foci formation, indicative of DNA double strand break formation. DNA strand breaks were also measured in mouse peripheral blood by the alkaline comet assay.

[6] = test system: Human lymphoblastoid cells; experiment: γ-H2AX foci formation after ionizing radiation; assay type: cell-based; conditions: data not shown
yeast S. cerevisiae = experiment: Yeast DNA deletions (reversion to histidine prototrophy) after γ-rays; assay type: cell-based, Saccharomyces cerevisiae; conditions: data not shown
[7] = test system: Human lymphoblastoid cells; experiment: Colony survival assay after ionizing radiation; assay type: cell-based; conditions: data not shown
[8] = lag and early exponential growth phases
[9] = non-dividing cells in stationary phase

**Q.** Which “activity in preliminary studies” value [1] does the source give for `Cc1sc(NC(=O)CN(Cc2ccccc2)C(=O)c2ccccc2)c(C(N)=O)c1C` [2-[2-(Benzoyl-benzyl-amino)-acetylamino]-4,5-dimethyl-thiophene-3-carboxylic acid amide] here?
**A.** shown activity

**Q.** With `NCCCNCCSP(=O)(O)O` [Amifostine, reference compound] as the compound, how does the “mice survived LD100/30 irradiation” value (C3H mice [2]) read?
**A.** 33%

**Q.** Which “adverse physiological or behavioral effects” value (C3H mice [3]) does the source give for `Cc1sc(NC(=O)CN(Cc2ccc(F)cc2)C(=O)c2ccccc2)c(C(N)=O)c1C` [Yel001] here?
**A.** did not show any adverse physiological nor behavioral adverse effects

**Q.** And the “first development of leukemia” value (DBA/2 Mice; 3.5 Gy, 25 mg/kg s.c., no drug also within 42 days)?
**A.** 42 days

**Q.** What about the mice exhibiting leukemia (DBA/2 Mice; Day 94, 3.5 Gy, 25 mg/kg s.c. 5 injections, irradiated controls 30%) of the same compound?
**A.** 20%

**Q.** And the leukemia frequency (DBA/2 Mice; Day 270, irradiated population 90%)?
**A.** 50%

**Q.** What about the “latency to leukemia development” value (DBA/2 Mice; FIG. 17) of the same compound?
**A.** increased latency to leukemia development

**Q.** And the “frequency of radiation induced and/or spontaneous cancer” value (DBA/2 Mice; FIG. 18)?
**A.** effective for reducing the frequency of radiation induced and spontaneous cancer

**Q.** And the “reduction of DEL events (gene reversion frequency)” value (RS112 cells; compound added 0-60 min after 2000Gy, p<0.05)?
**A.** decreased DEL frequencies; also recorded: significant reduction of genetic instability

**Q.** And the “mitigation of radiation cytotoxicity (survival)” value (RS112 cells; compound added at time points after 2000Gy, significant only at 60 min)?
**A.** increased survival fractions; also recorded: mitigation of radiation cytotoxicity has been observed

**Q.** And the “mitigation efficacy” value (C3H mice [2]; 75 mg/kg 1.25 protocol)?
**A.** did show therapeutic benefit

**Q.** What about the “mitigation efficacy” value (C3H mice [2]; 75 mg/kg 1.25 protocol, listed as Yel1) of the same compound?
**A.** show activity

**Q.** And the “mice survived LD100/30 irradiation” value (C3H mice [2])?
**A.** 67%

**Q.** And the “mitigation efficacy” value (C3H mice [2]; 75 mg/kg s.c. 5×24 protocol)?
**A.** did not exhibit significant efficacy

**Q.** And the “mitigation efficacy” value (C3H mice [2]; 75 mg/kg s.c. 5×24 protocol, listed as Yel1)?
**A.** also showed efficacy

**Q.** What about the percentage of survivors (C3H mice [2]; both protocols, 252 days post irradiation) of the same compound?
**A.** 30%

**Q.** What about the “animals still alive beyond 30 day window” value (C3H mice [2]; both protocols, +292 days) of the same compound?
**A.** 30%

**Q.** What about the “genotoxicity and cytotoxicity by MMS” value (DEL RS112 tester strain) of the same compound?
**A.** reduction in genotoxicity and cytotoxicity; also recorded: can be mitigated

**Q.** What about the “UV genotoxicity and cytotoxicity” value ([4]; 15 uM, P<0.05) of the same compound?
**A.** reduces cell death and genotoxicity; also recorded: significantly reduces genotoxicity and cytotoxicity

**Q.** What about the survival ([4]; 4000 J/m^2 UV, 15 uM at 60 minutes, untreated 0.64%) of the same compound?
**A.** 2.91%

**Q.** And the “survival following irradiation as compared to that of controls” value (mammalian cell lines)?
**A.** 130%

**Q.** What about the “radioprotector characteristics (genotoxicity and cytotoxicity protection)” value [5] of the same compound?
**A.** radioprotector characteristics

**Q.** With `C[S+](C)[O-]` [DMSO] as the compound, how does the “protection against radiation-induced DNA deletions” value (Yeast cells; [8]) read?
**A.** protected

**Q.** And the “protection against radiation-induced DNA deletions” value (Yeast cells; [9])?
**A.** could not be protected

**Q.** Which results are given for `O=C1O[C@H]([C@@H](O)CO)C(O)=C1O` [L-ascorbic acid]?
**A.** protection against radiation-induced DNA deletions (Yeast cells; [8]): protected; protection against radiation-induced DNA deletions (Yeast cells; [9]): could not be protected

**Q.** Which “genotoxicity of treatment alone” value (mouse peripheral blood; mouse, in vivo) does the source give for `CC(=O)N[C@@H](CS)C(=O)O` [NAC, N-acetyl-L-cysteine] here?
**A.** not genotoxic

**Q.** What about the “protection against DNA strand breaks” value (mouse peripheral blood; via drinking water, whole-body irradiated with 1 Gy) of the same compound?
**A.** fully protected against DNA strand breaks

**Q.** And the γ-H2AX foci formation [6]?
**A.** reduced γ-H2AX foci formation

**Q.** What about the “frequency of IR-induced DNA deletions” value (yeast S. cerevisiae) of the same compound?
**A.** reduced the frequency of IR-induced DNA deletions

**Q.** What about the “protection against cell death” value (yeast S. cerevisiae) of the same compound?
**A.** did not protect against cell death

**Q.** What about the “protective effect in colony survival” value [7] of the same compound?
**A.** no protective effect
